Read-outs that look alike come from different tables or passages of the source.
Molecular target: TBK1 (Homo sapiens (Human), UniProt Q9UHD2)
Test: TBK1 low ATP kinase assay (in vitro assay 1)
Type: biochemical
[1] = in vitro assay 1, read-out: TBK1 low ATP kinase assay IC50

Sequence of TBK1 (Q9UHD2 whole entry): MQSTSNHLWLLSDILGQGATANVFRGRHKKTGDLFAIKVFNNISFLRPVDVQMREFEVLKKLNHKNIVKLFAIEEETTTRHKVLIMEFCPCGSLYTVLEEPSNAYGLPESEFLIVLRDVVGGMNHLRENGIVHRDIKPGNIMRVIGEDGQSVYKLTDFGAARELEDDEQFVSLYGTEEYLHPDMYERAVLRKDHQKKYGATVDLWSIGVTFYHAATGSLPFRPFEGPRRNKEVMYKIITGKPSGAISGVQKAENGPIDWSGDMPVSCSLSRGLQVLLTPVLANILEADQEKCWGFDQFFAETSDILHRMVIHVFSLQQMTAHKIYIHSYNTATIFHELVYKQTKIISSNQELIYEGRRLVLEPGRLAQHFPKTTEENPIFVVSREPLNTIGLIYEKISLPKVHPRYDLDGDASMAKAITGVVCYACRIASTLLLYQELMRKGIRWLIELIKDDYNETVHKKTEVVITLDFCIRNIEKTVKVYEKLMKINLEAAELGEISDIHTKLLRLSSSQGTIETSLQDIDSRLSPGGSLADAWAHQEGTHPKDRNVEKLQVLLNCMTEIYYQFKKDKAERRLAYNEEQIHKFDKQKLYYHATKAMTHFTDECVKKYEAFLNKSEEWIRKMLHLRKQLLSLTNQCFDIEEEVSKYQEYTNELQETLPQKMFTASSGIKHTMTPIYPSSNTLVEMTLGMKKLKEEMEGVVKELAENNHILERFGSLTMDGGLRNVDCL

SMILES | IC50 [1] [nM] | IC50 (TBK1 low ATP kinase assay IC50, in vitro assay 1) [nM]
CN(C)c1cc(-c2ccc3nc(Nc4cc(CN5CCN(C(=O)CC(F)(F)F)CC5)ccn4)[nH]c3c2)ccn1 [Example 135.02, 1-(4-{[2-({6-[2-(dimethylamino)pyridin-4-yl]-1H-benzimidazol-2-yl)amino)pyridin-4-yl]methyl}piperazin-1-yl)-3,3,3-trifluoropropan-1-one] | 23 | –
COc1cncnc1-c1ccc2nc(Nc3cc(CN4CCN(S(=O)(=O)C5CCOCC5)CC4)ccn3)[nH]c2c1 [Example 35.01.14, 6-(5-methoxypyrimidin-4-yl)-N-(4-{[4-(tetrahydro-2H-pyran-4-ylsulfonyl)piperazin-1-yl]methyl}pyridin-2-yl)-1H-benzimidazol-2-amine] | 22.8 | –
O=C(C1CC1)N1CCN(Cc2ccnc(Nc3nc4ccc(-c5cc(N6CCCCC6)ncn5)cc4[nH]3)c2)CC1 [Example 145.03, cyclopropyl(4-{[2-({6-[6-(piperidin-1-yl)pyrimidin-4-yl]-1H-benzimidazol-2-yl}amino)pyridin-4-yl]methyl}piperazin-1-yl)methanone] | 2.1 | –
CC(c1ccnc(Nc2nc3ccc(-c4cc(C(F)F)ncn4)cc3[nH]2)c1)N1CCN(C(=O)CC(F)(F)F)CC1 (single isomer, unassigned) [Example 174.02, 1-(4-{(1R or 1S)-1-[2-({6-[6-(difluoromethyl)pyrimidin-4-yl]-1H-benzimidazol-2-yl}amino)pyridin-4-yl]ethyl}piperazin-1-yl)-3,3,3-trifluoropropan-1-one] | 3.63 | –
CC(c1ccnc(Nc2nc3ccc(-c4ccncn4)cc3[nH]2)c1)N1CCN(C(=O)CC(F)(F)F)CC1 (single isomer, unassigned) [Example 23.05.02.A, 3,3,3-trifluoro-1-{4-[(1R or 1S)-1-(2-{[6-(pyrimidin-4-yl)-1H-benzimidazol-2-yl]amino}pyridin-4-yl)ethyl]piperazin-1-yl}propan-1-one] | 8.23 | –
CC(c1ccnc(Nc2nc3ccc(-c4cc(N5CC(C(F)(F)F)C5)ncn4)cc3[nH]2)c1)N1CCN(C(=O)C2CC2)CC1 (single isomer, unassigned) [Example 164.03, cyclopropyl{4-[(1R or 1S)-1-{2-[(6-{6-[3-(trifluoromethyl)azetidin-1-yl]pyrimidin-4-yl}-1H-benzimidazol-2-yl)amino]pyridin-4-yl}ethyl]piperazin-1-yl}methanone] | 0.558 | –
CC(C)Oc1cncnc1-c1ccc2nc(Nc3cc(C(C)N4CCN(C(=O)C5CC5)CC4)ccn3)[nH]c2c1 (single isomer, unassigned) [Example 36.03, cyclopropyl(4-{(1R or 1S)-1-[2-({6-[5-(propan-2-yloxy)pyrimidin-4-yl]-1H-benzimidazol-2-yl}amino)pyridin-4-yl]ethyl}piperazin-1-yl)methanone] | 2.13 | –
CC(C)(C)OC(=O)N1CCN(Cc2ccnc(Nc3nc4ccc(-c5cc(OCC6(C(F)(F)F)CC6)ncn5)cc4[nH]3)c2)CC1 [Example 158.01, tert-butyl 4-[(2-{[6-(6-{[1-(trifluoromethyl)cyclopropyl]methoxy}pyrimidin-4-yl)-1H-benzimidazol-2-yl]amino}pyridin-4-yl)methyl]piperazine-1-carboxylate] | 160 | –
O=C(CC(F)(F)F)N1CCN(Cc2ccnc(Nc3nc4ccc(-c5cc(N6CCCCC6)ncn5)cc4[nH]3)c2)CC1 [Example 145.02, 3,3,3-trifluoro-1-(4-{[2-({6-[6-(piperidin-1-yl)pyrimidin-4-yl]-1H-benzimidazol-2-yl}amino)pyridin-4-yl]methyl}piperazin-1-yl)propan-1-one] | 2.9 | –
COc1cncnc1-c1ccc2nc(Nc3cc(C(C)N4CCN(C(=O)CC(F)(F)F)CC4)ccn3)[nH]c2c1 (single isomer, unassigned) [Example 35.03.01.B, 3,3,3-trifluoro-1-{4-[(1S or 1R)-1-(2-{[6-(5-methoxypyrimidin-4-yl)-1H-benzimidazol-2-yl]amino}pyridin-4-yl)ethyl]piperazin-1-yl}propan-1-one] | 30 | –
C[C@H](c1ccnc(Nc2nc3ccc(-c4cc(OCC(F)(F)F)ncn4)cc3[nH]2)c1)N1CCN(C(=O)CC(F)(F)F)CC1 [Example 119.02, 3,3,3-trifluoro-1-(4-{(1R)-1-[2-({6-[6-(2,2,2-trifluoroethoxy)pyrimidin-4-yl]-1H-benzimidazol-2-yl}amino)pyridin-4-yl]ethyl}piperazin-1-yl)propan-1-one] | 6.69 | –

Second part, the compound after the results:

IC50 [1] [nM] | IC50 (TBK1 low ATP kinase assay IC50, in vitro assay 1) [nM] | SMILES
52 | – | COc1c(-c2ccc3nc(Nc4cc(CN5CCN(C(=O)C6(C(F)(F)F)CC6)CC5)ccn4)[nH]c3c2)ncnc1N(C)CC1CC1 [Example 110.03, [4-({2-[(6-{6-[(cyclopropylmethyl)(methyl)amino]-5-methoxypyrimidin-4-yl}-1H-benzimidazol-2-yl)amino]pyridin-4-yl}methyl)piperazin-1-yl][1-(trifluoromethyl)cyclopropyl]methanone]
3.6 | – | CC(C)(C)OC(=O)N1CCN(Cc2ccnc(Nc3nc4ccc(-c5cc(NC6CC6)ncn5)cc4[nH]3)c2)CC1 [Example 82.01, tert-butyl 4-{[2-({6-[6-(cyclopropylamino)pyrimidin-4-yl]-1H-benzimidazol-2-yl}amino)pyridin-4-yl]methyl}piperazine-1-carboxylate]
270 | – | CCOc1c(-c2ccncc2OC)ccc2nc(Nc3cc(CN4CCN(C(=O)CC5CC5)CC4)ccn3)[nH]c12 [Example 51.02, 2-cyclopropyl-1-{4-[(2-{[7-ethoxy-6-(3-methoxypyridin-4-yl)-1H-benzimidazol-2-yl]amino}pyridin-4-yl)methyl]piperazin-1-yl}ethanone]
3.38 | – | O=C(CC(F)(F)F)N1CCN(Cc2ccnc(Nc3nc4ccc(-c5ccnc(OCC6CC6)n5)cc4[nH]3)c2)CC1 [Example 62.01.03, 1-(4-{[2-({6-[2-(cyclopropylmethoxy)pyrimidin-4-yl]-1H-benzimidazol-2-yl}amino)pyridin-4-yl]methyl}piperazin-1-yl)-3,3,3-trifluoropropan-1-one]
136 | – | O=C(C1CC1)N1CCN(Cc2ccnc(Nc3nc4ccc(-c5ncnc6c5COC6)cc4[nH]3)c2)CC1 [Example 182.03, cyclopropyl{4-[(2-{[6-(5,7-dihydrofuro[3,4-d]pyrimidin-4-yl)-1H-benzimidazol-2-yl]amino}pyridin-4-yl)methyl]piperazin-1-yl}methanone]
1270 | – | Cn1ccc(-c2ccc3nc(Nc4cc(CN5CCN(C(=O)CC6CC6)CC5)ccn4)[nH]c3c2)n1 [Example 40.02, 2-cyclopropyl-1-{4-[(2-{[6-(1-methyl-1H-pyrazol-3-yl)-1H-benzimidazol-2-yl]amino}pyridin-4-yl)methyl]piperazin-1-yl}ethanone]
30.2 | – | COc1cnccc1-c1ccc2nc(Nc3cc(CN4CCN(C(=O)C(C)(C)C)CC4)ccn3)[nH]c2c1 [Example 04.06, 1-{4-[(2-{[6-(3-methoxypyridin-4-yl)-1H-benzimidazol-2-yl]amino}pyridin-4-yl)methyl]piperazin-1-yl}-2,2-dimethylpropan-1-one]
20 | – | CN(C)c1ncnc(-c2ccc3nc(Nc4cc(CN5CCN(C(=O)CC(F)(F)F)CC5)ccn4)[nH]c3c2)c1F [Example 162.02, 1-(4-{[2-({6-[6-(dimethylamino)-5-fluoropyrimidin-4-yl]-1H-benzimidazol-2-yl}amino)pyridin-4-yl]methyl}piperazin-1-yl)-3,3,3-trifluoropropan-1-one]
– | 7.56 | O=C(CC(F)(F)F)N1CCN(Cc2ccnc(Nc3nc4ccc(-c5cnn(CC6CCC6)c5)cc4[nH]3)c2)CC1 [Example 59.02.01, 1-(4-{[2-({6-[1-(cyclobutylmethyl)-1H-pyrazol-4-yl]-1H-benzimidazol-2-yl}amino)pyridin-4-yl]methyl}piperazin-1-yl)-3,3,3-trifluoropropan-1-one]
111 | – | CCc1nccc(-c2ccc3nc(Nc4cc(CN5CCN(C(=O)OC(C)(C)C)CC5)ccn4)[nH]c3c2)n1 [Example 28.01, tert-butyl 4-[(2-{[6-(2-ethylpyrimidin-4-yl)-1H-benzimidazol-2-yl]amino}pyridin-4-yl)methyl]piperazine-1-carboxylate]
227 | – | Cc1noc(-c2ccc3nc(Nc4cc(CN5C[C@@H](C)N(C(=O)CC6CC6)C[C@@H]5C)ccn4)[nH]c3c2)n1 [Example 16.02.03, 2-cyclopropyl-1-{(2R,5S)-2,5-dimethyl-4-[(2-{[6-(3-methyl-1,2,4-oxadiazol-5-yl)-1H-benzimidazol-2-yl]amino}pyridin-4-yl)methyl]piperazin-1-yl}ethanone]
190 | – | Cc1nccc(-c2ccc3nc(Nc4cc(CN5CCN(C(=O)CC(F)(F)F)CC5)ccn4)[nH]c3c2)c1Cl [Example 130.02, 1-{4-[(2-{[6-(3-chloro-2-methylpyridin-4-yl)-1H-benzimidazol-2-yl]amino}pyridin-4-yl)methyl]piperazin-1-yl}-3,3,3-trifluoropropan-1-one]
3540 | – | Cc1ncc(C)c(-c2ccc3nc(Nc4cc(CN5CCN(C(=O)OC(C)(C)C)CC5)ccn4)[nH]c3c2)n1 [Example 33.01, tert-butyl 4-[(2-{[6-(2,5-dimethylpyrimidin-4-yl)-1H-benzimidazol-2-yl]amino}pyridin-4-yl)methyl]piperazine-1-carboxylate]
16.9 | – | Cc1cc(-c2ccc3nc(Nc4cc(CN5CCN(C(=O)CC6CC6)CC5)ccn4)[nH]c3c2)ncn1 [Example 30.01.03, 2-cyclopropyl-1-{4-[(2-{[6-(6-methylpyrimidin-4-yl)-1H-benzimidazol-2-yl]amino}pyridin-4-yl)methyl]piperazin-1-yl}ethanone]
8.3 | – | COCc1cc(-c2ccc3nc(Nc4cc(CN5CCN(C(=O)CC(F)(F)F)CC5)ccn4)[nH]c3c2)ncn1 [Example 79.01, 3,3,3-trifluoro-1-(4-{[2-({6-[6-(methoxymethyl)pyrimidin-4-yl]-1H-benzimidazol-2-yl}amino)pyridin-4-yl]methyl}piperazin-1-yl)propan-1-one]
288 | – | COc1cc(-c2ccc3nc(Nc4cc(CN5CCN(C(=O)CC6CC6)CC5)ccn4)[nH]c3c2)c(F)cn1 [Example 03.04, 2-cyclopropyl-1-{4-[(2-{[6-(5-fluoro-2-methoxypyridin-4-yl)-1H-benzimidazol-2-yl]amino}pyridin-4-yl)methyl]piperazin-1-yl}ethanone]

From US10894784B2, “Heteroarylbenzimidazole compounds” (BAYER PHARMA AKTIENGESELLSCHAFT, priority 2015, dated 2021)
